# Laboratory results: patent publication US5182258A, “Systemic delivery of polypeptides through the eye” (Orbon Corporation, priority 1989, dated 1993)
# What was measured:
# [1] = for effect of peptidase inhibitors on systemic absorption of TRH: 4 mM, Bestatin, 60 uM, D,L-Thiorphan, 0.6 uM, ocular TRH
# [2] = Absorption of insulin into systemic circulation via the eyes or i.v. (125I blood level); type: in vivo, rabbit; settings: ocular insulin plus leucine-leucine
# [3] = Blood enkephalin-equivalent concentration after ocular or i.v. enkephalin
# [4] = Enkephalin-equivalent remaining in eye tissues at the end of 12 hr experiment
structure (smiles),measurement,setting,value
"O=C(O)CNC(=O)C(CS)Cc1ccccc1 (racemic) [D,L-Thiorphan, D,L-thiorphan]",effect of peptidase inhibitors on systemic absorption of TRH,[1]; Leu-Leu,did not significantly enhance the systemic absorption of TRH
"CC(C)C[C@H](NC(=O)CNC(=O)[C@H](Cc1ccc(O)cc1)NC(=O)[C@H](CO)NC(=O)[C@H](Cc1c[nH]c2ccccc12)NC(=O)[C@H](Cc1cnc[nH]1)NC(=O)[C@@H]1CCC(=O)N1)C(=O)N[C@@H](CCCNC(=N)N)C(=O)N1CCC[C@H]1C(=O)NCC(N)=O [LHRH, luteinizing hormone-releasing hormone]",eye drop concentration sufficient to reach therapeutic effective blood concentration,"[1]; rabbit, in vivo",0.005%
"CC(C)C[C@H](NC(=O)[C@@H](N)CC(C)C)C(=O)O [Leu-Leu, leucine-leucine]",effect of added peptidase inhibitor on insulin absorption,[2],did not significantly improve insulin absorption
same,effect of peptidase inhibitors on systemic absorption of TRH,[1]; Leu-Leu,did not significantly enhance the systemic absorption of TRH
same,effect of peptidase inhibitor on systemic absorption of LHRH,"[1]; Leu-Leu, 5 mM, ocular LHRH",did increase the systemic absorption of LHRH significantly
same,effect of peptidase inhibitor on systemic absorption of glucagon,"[1]; Leu-Leu, 5 mM, ocular glucagon",did not increase the systemic absorption of glucagon
"NC(=O)[C@@H]1CCCN1C(=O)[C@H](Cc1cnc[nH]1)NC(=O)[C@@H]1CCC(=O)N1 [TRH, Thyrotrophin-releasing hormone]",eye drop concentration giving a therapeutic blood concentration,"[1]; rabbit, in vivo",≥ 0.0025%
same,peak blood TRH concentration,"[1]; rabbit, in vivo",138 ng/mL
same,steady state blood TRH concentration after the peak,"[1]; rabbit, in vivo",60 ng/mL
same,time from the peak to steady state,"[1]; rabbit, in vivo",9 h
same,time to peak,"[1]; rabbit, in vivo",60 min
"CC(C)C[C@H](NC(=O)[C@H](Cc1ccccc1)NC(=O)CNC(=O)CNC(=O)[C@@H](N)Cc1ccc(O)cc1)C(=O)O [enkephalin, Leucine-enkephalin (5-L-leucine)]",Tx of decline of blood concentration,[3]; 50 ug i.v.,less than 30 min
same,lowest point of blood concentration,"[3]; 50 ug i.v., in 5 hrs",22 ng/mL
same,plateau blood enkephalin concentration,[3]; 1% enkephalin instilled into eye,72 ng/mL
same,plateau blood enkephalin concentration,[3]; 5% enkephalin instilled into eye,233 ng/mL
same,actual concentration of enkephalin in the lens compared with other tissues,[4],lowest among all tissues
